Measured values published in patent US20190046490A1, “METHODS OF TREATING LACTOSE INTOLERANCE” (Nogra Pharma Limited, priority 2016, published 2019).
Several values for one entry are separate records, joined by “and”; a condition that tells them apart may be missing. Equal entries are not always repeated. Entries after “also recorded” stand apart in the source; their conditions may differ.

Legend:
[1] = system: LCT; test: LCT mRNA expression and activity in proximal small intestine of mice after oral GED; format: in vivo; conditions: weaned C57BL/6 mice, 30 mg/kg daily by gavage for 7 days
Method: (§1) Expression of genes of interest was quantified by quantitative PCR (qPCR) of corresponding reverse transcribed mRNA. One μg of total RNA was reverse-transcribed into cDNA using the High Capacity cDNA Archive kit (Applied Biosystems). Amplification was performed using an ABI PRISM 7000 sequence detection system (Applied Biosystem) using Power SYBR® Green PCR master Mix (Applied Biosystem). Primer pairs for each human transcript were chosen with qPrimer depot software (at primerdepot.nci.nih.gov.). Quantification of qPCR signals was performed using ΔCt relative quantification method using GAPDH as a reference gene for human and rat samples and β-Actin for mouse samples. Values were represented in terms of relative quantity of mRNA level variation or fold increase compared to control conditions.
(§2) Lactase activity was evaluated by using a glucose oxidase method (Glucose Assay Kit, Sigma). […] For Caco-2 cells, lactase activity was determined directly from the cell monolayer. […] The reaction was stopped with 100 μl of H2SO4 and read by spectrophotometry at 450 nm. When lactase activity was determined from intestinal sample, tissue samples were first dounce-homogenized in 0.9% NaCl on crushed ice. […] For each experiment, the background attributed to the remaining glucose in the samples was measured by incubating cells or cell extracts in lactose-free buffer. […]

[2] = system: DR2 response element of the human LCT gene promoter; test: Luciferase reporter gene assay with LCT promoter DR2 fragment in Caco-2 cells; format: cell-based
Method: A 321 bp genomic fragment (corresponding to the first 321 bp upstream to the transcription start site of the human lactase gene) was cloned in the pGL4-Luc reporter vector using XhoI and Hind III restriction sites introduced in “Hs-Prom-0.3 Kb sens” and “Hs-Prom-0.3 Kb anti-sens” oligonucleotides respectively. This construct and the empty vector control were transiently transfected in Caco-2 cells using Nucleofector™ Technology. Six hours post-transfection, cells were treated with PPARγ modulator for 12 hours. Luciferase activity was measured using the luciferase assay kit (Promega) in a Wallac Victor2 ™ 1420 multilabel counter (Perkin Elmer).

[3] = system: LCT; test: LCT mRNA expression and activity in proximal small intestine of rats after oral GED; format: in vivo; conditions: weaned Sprague-Dawley rats, 30 mg/kg daily by gavage for 7 days
Method: as §1, §2

[4] = system: LCT gene; test: Transcriptome microarray analysis of LCT mRNA expression in Caco-2 cells treated with PPARγ modulators; format: cell-based, human; conditions: vs unstimulated cells
Method: (§3) Caco-2 (colonic adenocarcinoma) cells were grown in Dulbecco's Modified Eagle's Medium (DMEM, Invitrogen, Life Technologies, Cergy-Pontoise, France) supplemented with 20% foetal calf serum (FCS, Dutscher, Brumath, France), 1% penicillin-streptomycin (5 ml/l) (Invitrogen, Life technologies) and 1% non-essential amino acids (5 ml/l) (Invitrogen, Life technologies). All cell lines were cultured as confluent monolayers at 37° C. in a controlled, 5% CO2 atmosphere.
(§4) For cell stimulations, 1×10^6 cells per well were seeded in 6-well plates. Cells were serum deprived for 16 hours prior to stimulation in order to synchronize the cells. Cells were treated with GED (Nogra Pharma Ltd, Ireland), pioglitazone (1 μM, Sigma-Aldrich) or CLA (various concentrations, Sigma-Aldrich). When necessary, the DMSO vehicle (Sigma-Aldrich) was used as control. After 24 hours of stimulation, cells were washed three times with sterile PBS before RNA extraction. Cell stimulations were performed in 4 replicates for microarray analysis and in 3, 4 or 6 replicates for other stimulations.
(§5) Cells were lysed with lysis buffer (RA1, Macherey-Nagel) containing 1% β-mercaptoethanol. Total RNA was extracted with a Nucleospin RNA kit (Macherey-Nagel, Hoerdt, France). After RNAse inactivation, total RNA was cleaned of genomic DNA traces by DNAse treatment and eluted in RNAse-free, DEPC-water. The purity of the RNA was evaluated by UV spectroscopy on a Nanodrop system (Nyxor Biotech, Paris, France) from 220 to 350 nm. Before microarray experiments, RNAs were also profiled on an Agilent 2100 bioanalyzer. One μg of total RNA with a minimum concentration of 50 ng/μl was used in the microarray and qRT-PCR analysis.
Dual-colour gene expression microarrays were used to compare the cRNA from the samples. 44,000 genes were screened. The RNAs from the samples were first reverse-transcribed into cDNA (Affinity-Script RT, Agilent), which were then used as the substrate for the synthesis and amplification of cRNA by T7 RNA polymerase in the presence of cyanine 3-CTP for the CTL sample (green fluorescence) and cyanine 5-CTP for the PPAR-γ y modulator sample (red fluorescence). The two-labelled cRNAs were mixed, hybridized on the same array (G4851A Agilent 8×44K) and then scanned (with an Agilent G2505B scanner). Fluorescence was visualized after laser excitation and the relative intensities of the two fluorophores were expressed as a ratio, in order to yield the over- or under-expression status of each gene (using GeneSpring software (Agilent)). This analysis was performed for each PPAR-γ modulator.

[5] = system: LCT mRNA; test: Quantitative PCR of LCT mRNA expression in Caco-2 cells; format: cell-based, human
Method: as §3, §4, §5, §1

COC(Cc1ccc(N)cc1)C(=O)O (stereo not shown) [GED, 3-(4′-aminophenyl)2-methoxypropionic acid]
LCT activity in the proximal part of the small intestine [1]: significantly increased
LCT expression in the proximal part of the small intestine [1]: significantly increased
luciferase activity compared to untreated cells ([2]; Caco-2 cells transfected with pGL4Luc Prom LCT construct): significantly increased
luciferase activity ([2]; Caco-2 cells with luciferase construct lacking the DR2 sequence (pGL4Luc)): No significant change
LCT activity in the proximal part of the small intestine [3]: significantly increased
LCT expression in the proximal part of the small intestine [3]: significantly increased
Fold Lactase RNA ([4]; 1 mM): 5.28 fold and 5.29 fold
Fold Lactase RNA ([4]; 30 mM): 8.28 fold
LCT mRNA gene expression relative to unstimulated cells, dose-response ([5]; 0.1 mM, 1 mM, and 30 mM): increased
LCT mRNA expression relative to control (qPCR) ([5]; 30 mM, 24 hours, normalized to GAPDH): Significant increases; also recorded: induction
